This is an account of results in patent publication US5750558A, “Oxime derivatives of indole and indene compounds as inhibitors of prostaglandin biosynthesis” (Abbott Laboratories, priority 1996, dated 1998).

The target in test [1] is T1, recombinant human PGHS-2 (Homo sapiens, UniProt P35354).
T1 construct: made in house; host or cells: baculovirus/Sf9 insect cells (microsomes)
T1 sequence (P35354 18-604): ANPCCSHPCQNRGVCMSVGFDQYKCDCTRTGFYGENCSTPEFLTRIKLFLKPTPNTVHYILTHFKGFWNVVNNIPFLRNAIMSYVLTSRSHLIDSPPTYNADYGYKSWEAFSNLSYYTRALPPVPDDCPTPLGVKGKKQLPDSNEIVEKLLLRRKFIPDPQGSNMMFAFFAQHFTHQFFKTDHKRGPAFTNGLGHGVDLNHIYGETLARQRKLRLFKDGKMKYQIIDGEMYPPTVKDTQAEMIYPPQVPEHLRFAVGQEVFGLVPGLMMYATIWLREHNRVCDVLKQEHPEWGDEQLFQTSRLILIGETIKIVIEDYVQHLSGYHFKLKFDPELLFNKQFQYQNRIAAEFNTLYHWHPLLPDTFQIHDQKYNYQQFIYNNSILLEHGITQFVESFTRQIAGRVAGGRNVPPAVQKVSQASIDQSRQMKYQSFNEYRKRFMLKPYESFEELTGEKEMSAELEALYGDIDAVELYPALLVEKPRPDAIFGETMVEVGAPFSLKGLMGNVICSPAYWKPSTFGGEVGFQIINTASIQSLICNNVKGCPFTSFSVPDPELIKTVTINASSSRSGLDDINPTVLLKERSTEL
As to the kind of experiment: Inhibition of prostaglandin biosynthesis in recombinant human PGHS-2 enzyme assay (PGE2 by EIA). It is filed as biochemical. How it is done: (§1) Inhibition of prostaglandin biosynthesis was evaluated in recombinant human PGHS-1 and PGHS-2 enzyme assays. Representative compounds dissolved in DMSO (3.3% v/v) were preincubated with microsomes from recombinant human PGHS-1 or PGHS-2 expressed in the baculovirus/Sf9 cell system (Gierse, J. K., Hauser, S. D., Creely, D. P., Koboldt, C., Rangwala, S., H., Isakson, P. C., and Seibert, K. Expression and selective inhibition of the constituitive and inducible forms of cyclooxygenase Biochem J. 1995, 305: 479.), together with the cofactors phenol (2 mM) and hematin (1 μM) for 60 minutes prior to the addition of 10 μM arachidonic acid. The reaction was allowed to run for 2.5 minutes at room temperature prior to quenching with HCl and neutralization with NaOH. PGE2 production in the presence and absence of the drug was determined by EIA analysis. The EIA was conducted in 96 well microtiter plates (Nunc Roskilde, Denmark) and optical density measured using a microplate reader (Vmax, Molecular Devices Corp., Menlo Park, Calif.). EIA reagents for prostaglandin determination were purchased from Perseptive Diagnostics, Cambridge, Mass. PGE2 levels were measured against standards prepared in the same milieu. The immunoassays were conducted as recommended by the manufacturer.

For test [2], the target named is T2, recombinant human PGHS-1 (Homo sapiens, UniProt P23219).
T2 construct: made in house; host or cells: baculovirus/Sf9 insect cells (microsomes)
Nature of the test: Inhibition of prostaglandin biosynthesis in recombinant human PGHS-1 enzyme assay (PGE2 by EIA). It is filed as biochemical. Here is the method:
as §1

Test [3] concerns PGHS-1. Particulars: background statement; cited from earlier work.
The subject of test [4] is PGHS-2. Particulars: background statement; cited from earlier work.

T2 sequence (P23219 24-599): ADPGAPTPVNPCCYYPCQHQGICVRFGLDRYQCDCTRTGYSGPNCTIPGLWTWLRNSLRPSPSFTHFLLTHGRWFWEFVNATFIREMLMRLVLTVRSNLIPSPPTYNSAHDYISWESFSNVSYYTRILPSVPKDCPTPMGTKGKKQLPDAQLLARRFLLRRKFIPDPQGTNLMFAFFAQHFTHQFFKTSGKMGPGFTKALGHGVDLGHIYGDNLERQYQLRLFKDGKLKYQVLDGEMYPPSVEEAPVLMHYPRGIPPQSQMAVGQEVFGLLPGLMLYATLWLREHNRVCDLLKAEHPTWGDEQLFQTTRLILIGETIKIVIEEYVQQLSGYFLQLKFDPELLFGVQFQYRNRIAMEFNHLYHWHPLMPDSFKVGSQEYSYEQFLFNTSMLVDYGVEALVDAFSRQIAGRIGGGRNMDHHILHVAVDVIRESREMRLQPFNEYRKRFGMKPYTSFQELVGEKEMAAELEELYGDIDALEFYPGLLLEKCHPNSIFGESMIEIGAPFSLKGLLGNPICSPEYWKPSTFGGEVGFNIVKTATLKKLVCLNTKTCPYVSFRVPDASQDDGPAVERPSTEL

Consider `COc1ccc2c(c1)c(CC=NOCC(=O)O)c(C)n2C(=O)c1ccc(Cl)cc1` [Example 1, (4-chlorobenzoyl-5-methoxy-2-methylindol-3-yl) acetaldehyde-.omicron.-carboxymethyl oxime], for which the IC50 in test [1] was found to be 730 nM.
Turning to `COc1ccc2c(c1)c(CC=NOCC(=O)OCC1COC(C)(C)O1)c(C)n2C(=O)c1ccc(Cl)cc1` (stereo not shown) [Example 2, (4-chlorobenzoyl-5-methoxy-2-methylindol-3-yl) acetaldehyde-.omicron.-4-(2.2-dimethyldioxanylmethyloxycarbonylmethyl) oxime], the IC50 is 90 nM in test [2] and 3 nM in test [1].
As to `COc1ccc2cc([C@H](C)C(=O)O)ccc2c1` [naproxen], in test [3], the “inhibition of PGHS-1” value was “inhibit both isozymes”. Also, the “inhibition of PGHS-2” value in test [4] is “inhibit both isozymes”.
On to `CC(C)Cc1ccc(C(C)C(=O)O)cc1` (stereo not shown) [ibuprofen], for which, in test [3], the “inhibition of PGHS-1” value is “inhibit both isozymes”. Besides, in test [4], the “inhibition of PGHS-2” value was “inhibit both isozymes”.
On to `COc1ccc2c(c1)c(CC=NOCC(=O)OCC(O)CO)c(C)n2C(=O)c1ccc(Cl)cc1` (racemic) [Example 3, (4-chlorobenzoyl-5-methoxy-2-methylindol-3-yl) acetaldehyde-.omicron.-4-(2.3-dihydroxypropyloxycarbonylmethyl) oxime], for which the inhibition at 1 µM in test [2] (@ 1 μM, human recombinant PGHS-1, read-out: PGHS-1 % inhibition (printed in PGHS-1 IC50 column)) was found to be 41%. For the same compound, in test [1] (@ 0.1 μM, human recombinant PGHS-2, read-out: PGHS-2 % inhibition (printed in PGHS-2 IC50 column)), the inhibition at 0.1 µM was 70%.
As for `CC1=C(CC(=O)O)c2cc(F)ccc2/C1=C\c1ccc([S+](C)[O-])cc1` (stereo not shown) [sulindac], the “inhibition of PGHS-1” value in test [3] is “inhibit both PGHS-1 and PGHS-2”. For the same compound, in test [4], the “inhibition of PGHS-2” value was “inhibit both PGHS-1 and PGHS-2”.
As to `COc1ccc2c(c1)c(CC(=O)O)c(C)n2C(=O)c1ccc(Cl)cc1` [Indomethacin], the “inhibition of PGHS-1” value in test [3] is “inhibit both PGHS-1 and PGHS-2”. Also, the “inhibition of PGHS-2” value in test [4] was “inhibit both PGHS-1 and PGHS-2”.

As usually defined, the IC50 is the point on the concentration scale where inhibition reaches its midpoint. As a reminder, the inhibition is the relative decrease from the control value, in per cent.
